Nine compounds from PubChem BioAssay (NCI) can be followed below.

Test systems include SNB-19 CNS; EKVX NSCLC; NCI-H460 lung; LOX IMVI melanoma; NCI/ADR-RES ovarian; OVCAR-4 ovarian; IGROV1 ovarian; CCRF-CEM leukemia; UO-31 renal; RXF 393 renal.
What all share (test): NCI anticancer screen, dose series, 48 h

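Compound exposure: 48 hours, 5 concentrations, 96-well plates. At the GI50, growth is halved. TGI denotes the concentration required for complete inhibition of growth.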

`CC(=O)OCCC/C(=C/c1cc2ccccc2c2ccccc12)[N+](=O)[O-]`: the GI50 in the assay on SNB-19 CNS is 1.66 µM; with EKVX NSCLC it was 1.42 µM; in the assay with NCI-H460 lung it was 1.71 µM; in the assay with LOX IMVI melanoma, 0.423 µM; in the assay on NCI/ADR-RES ovarian, 1.99 µM; in the assay on OVCAR-4 ovarian it was 1.75 µM. Moreover, the GI50 is 1.06 µM in the assay on IGROV1 ovarian, 2.52 µM in the assay with CCRF-CEM leukemia, 1.09 µM in the assay on UO-31 renal and 1.4 µM in the assay with RXF 393 renal. Further, the TGI was 3.22 µM in the assay with SNB-19 CNS; 3.67 µM with EKVX NSCLC; 3.14 µM in the assay with NCI-H460 lung; 1.08 µM in the assay with LOX IMVI melanoma; 4.31 µM in the assay with NCI/ADR-RES ovarian; 3.29 µM with OVCAR-4 ovarian. For the same compound, the TGI in the assay on IGROV1 ovarian is 2.81 µM; with CCRF-CEM leukemia it was above 25.3 µM; in the assay with UO-31 renal it was 2.3 µM; with RXF 393 renal it was 2.91 µM.

With `NC(=O)/C=C/c1c[nH]c2nccnc12`, the TGI in the assay on SNB-19 CNS is above 16.7 µM; with EKVX NSCLC, 24.7 µM; in the assay with NCI-H460 lung it was above 54 µM; in the assay with LOX IMVI melanoma, 4.63 µM; in the assay on NCI/ADR-RES ovarian, above 29.1 µM; in the assay on OVCAR-4 ovarian, 65.4 µM. In addition, the TGI is above 28.8 µM in the assay with IGROV1 ovarian, 7.4 µM in the assay with CCRF-CEM leukemia, 0.609 µM with UO-31 renal and 4.17 µM in the assay with RXF 393 renal.

`COc1ncc(-c2ccc3ncnc(Nc4cccc(Cl)c4)c3c2)cc1NS(C)(=O)=O`: the GI50 in the assay on SNB-19 CNS was 3.19 µM; in the assay on EKVX NSCLC, 0.579 µM; with NCI-H460 lung, 1.87 µM; in the assay with LOX IMVI melanoma, 1.68 µM; with NCI/ADR-RES ovarian it was 2.38 µM; in the assay on OVCAR-4 ovarian, 4.97 µM. For the same compound, the GI50 with IGROV1 ovarian is 0.189 µM; in the assay on CCRF-CEM leukemia it was 2.81 µM; in the assay with UO-31 renal, 0.354 µM; in the assay on RXF 393 renal, 1.42 µM. The TGI in the assay on SNB-19 CNS was 31.3 µM; in the assay on EKVX NSCLC, 9.65 µM; in the assay with NCI-H460 lung, above 100 µM; with LOX IMVI melanoma it was 11.1 µM; in the assay on NCI/ADR-RES ovarian, 29.1 µM; in the assay on OVCAR-4 ovarian it was 64.3 µM. In addition, the TGI in the assay with IGROV1 ovarian is 0.815 µM; in the assay on CCRF-CEM leukemia it was 43.2 µM; in the assay on UO-31 renal it was 8.96 µM; with RXF 393 renal, 4.79 µM.

Take `CC(NNC(=S)N1CCN(c2ccccn2)CC1)c1cccc[n+]1[O-]` (stereo not given): the TGI in the assay on SNB-19 CNS is above 100 µM; with EKVX NSCLC it was above 100 µM; in the assay with NCI-H460 lung, above 100 µM; with LOX IMVI melanoma, 39.1 µM; with NCI/ADR-RES ovarian, 36.5 µM; in the assay with OVCAR-4 ovarian it was above 100 µM. Moreover, the TGI was above 100 µM with IGROV1 ovarian, 20.5 µM in the assay on CCRF-CEM leukemia, 82.3 µM with UO-31 renal and above 100 µM in the assay with RXF 393 renal.

`COc1ccc(-c2cncn2-c2ccc(-c3nc4cc(OC)c(OC)c(OC)c4s3)cc2)cc1N`: the GI50 in the assay on SNB-19 CNS is above 100 µM; with EKVX NSCLC, 7.54 µM; in the assay with NCI-H460 lung, 4.69 µM; with LOX IMVI melanoma, 4.75 µM; in the assay with NCI/ADR-RES ovarian, 3.12 µM; in the assay with OVCAR-4 ovarian, 6.29 µM. The GI50 was 4.9 µM in the assay with IGROV1 ovarian, 3.41 µM with CCRF-CEM leukemia, 1.99 µM in the assay with UO-31 renal and 5.98 µM in the assay with RXF 393 renal. The TGI in the assay on SNB-19 CNS, with EKVX NSCLC, with NCI-H460 lung, in the assay on LOX IMVI melanoma, in the assay with NCI/ADR-RES ovarian and with OVCAR-4 ovarian was above 100 µM each time. Further, the TGI in the assay with IGROV1 ovarian was above 100 µM; in the assay with CCRF-CEM leukemia, above 100 µM; in the assay with UO-31 renal it was 7.57 µM; in the assay with RXF 393 renal, above 100 µM.

As for `O=C(O)c1ccccc1C(=O)Nc1cc2c(cc1Br)-c1ccccc1C2=O`, the TGI in the assay on SNB-19 CNS, in the assay with EKVX NSCLC, in the assay with NCI-H460 lung, with LOX IMVI melanoma, in the assay on NCI/ADR-RES ovarian and with OVCAR-4 ovarian was above 100 µM throughout. For the same compound, the TGI in the assay with IGROV1 ovarian, in the assay with CCRF-CEM leukemia, in the assay with UO-31 renal and with RXF 393 renal was above 100 µM in each case.

As to `COC(=O)C[C@@H]1CC=CC(=O)/C1=C(O)/C=C/c1ccccc1`, the GI50 in the assay on SNB-19 CNS was 1.57 µM; in the assay with EKVX NSCLC it was 1.85 µM; with NCI-H460 lung, 2.08 µM; in the assay with LOX IMVI melanoma, 0.172 µM; with NCI/ADR-RES ovarian, 0.308 µM; in the assay with OVCAR-4 ovarian, 1.54 µM. Further, the GI50 was 0.216 µM in the assay with IGROV1 ovarian, 0.264 µM in the assay on CCRF-CEM leukemia, 0.303 µM with UO-31 renal and 0.295 µM in the assay on RXF 393 renal. Also, the TGI came out at 4.84 µM in the assay on SNB-19 CNS; 3.91 µM with EKVX NSCLC; 8.2 µM in the assay with NCI-H460 lung; 0.332 µM in the assay on LOX IMVI melanoma; 1.97 µM with NCI/ADR-RES ovarian; 2.96 µM in the assay on OVCAR-4 ovarian. Further, the TGI in the assay with IGROV1 ovarian was found to be 0.52 µM; in the assay with CCRF-CEM leukemia it was 1.19 µM; in the assay on UO-31 renal, 0.826 µM; in the assay with RXF 393 renal, 0.888 µM.

`CCC1C[N+]2=C(c3cc(OC)c(OC)cc3CC2)c2c1cc1n2CCc2cc(OC)c(OC)cc2-1` (stereo not given): the GI50 in the assay with SNB-19 CNS is 2.75 µM; in the assay with EKVX NSCLC, 6.62 µM; in the assay with NCI-H460 lung, 2.82 µM; with LOX IMVI melanoma, 3.72 µM; in the assay with NCI/ADR-RES ovarian, 64.3 µM; with OVCAR-4 ovarian, 1.14 µM. Moreover, the GI50 with IGROV1 ovarian is 5.62 µM; in the assay with CCRF-CEM leukemia it was 3.68 µM; in the assay with UO-31 renal, 18.4 µM; in the assay with RXF 393 renal, 3.46 µM. The TGI is 15.7 µM in the assay with SNB-19 CNS; above 100 µM in the assay on EKVX NSCLC; 12.1 µM in the assay with NCI-H460 lung; 23.2 µM with LOX IMVI melanoma; above 100 µM in the assay with NCI/ADR-RES ovarian; 8.87 µM in the assay on OVCAR-4 ovarian. Besides, the TGI is 53.6 µM in the assay on IGROV1 ovarian, 42.4 µM in the assay with CCRF-CEM leukemia, 46.8 µM in the assay on UO-31 renal and 15.5 µM with RXF 393 renal.

In the case of `C=C(C)[C@@H]1CC[C@]2(COC(=O)c3ccccc3C(=O)O)CC[C@]3(C)[C@H](CC[C@@H]4[C@@]5(C)CC[C@H](OC(=O)c6ccccc6C(=O)O)C(C)(C)[C@@H]5CC[C@]43C)[C@@H]12`, the GI50 is 23.2 µM in the assay on SNB-19 CNS; 37.4 µM in the assay with EKVX NSCLC; 85.1 µM with NCI-H460 lung; 24.6 µM with LOX IMVI melanoma; 67.6 µM in the assay with NCI/ADR-RES ovarian; 36.7 µM with OVCAR-4 ovarian. Besides, the GI50 with IGROV1 ovarian was 33.2 µM; in the assay on CCRF-CEM leukemia, 30.5 µM; with UO-31 renal, 32.1 µM; in the assay on RXF 393 renal it was 22.6 µM. The TGI in the assay on SNB-19 CNS, in the assay on EKVX NSCLC, in the assay on NCI-H460 lung, with LOX IMVI melanoma, in the assay with NCI/ADR-RES ovarian and with OVCAR-4 ovarian was above 100 µM each time. Further, the TGI is above 100 µM in the assay on IGROV1 ovarian, above 100 µM in the assay with CCRF-CEM leukemia, above 100 µM with UO-31 renal and 77.3 µM in the assay with RXF 393 renal.
